# Results published in paper PMC8595825 (Journal of medicinal chemistry, 2021).
# System: M. tuberculosis H37Rv
# Type: cell-based, Mycobacterium tuberculosis H37Rv
# Details: 1× to 8× MIC90, 8 weeks, 3 × 10^8 cells
row,Compound,spontaneous mutation frequency
1,CCCCCCCCn1c2c([n+](CCCC)c1C)C(=O)c1ccccc1C2=O.[Br-] [compound 32],< 3 × 10^−9 /CFU
2,CCCCCCCn1c2c([n+](CCCCC)c1C)C(=O)c1ccccc1C2=O.[Br-] [compound 48],< 3 × 10^−9 /CFU
